# According to patent US10513496B2, “Aminobenzamide derivatives as useful agents for controlling animal parasites” (BAYER INTELLECTUAL PROPERTY GMBH, priority 2007, dated 2019):
# Tests used:
# Assay type in all cases: in vivo
# [1] = system: Boophilus microplus; assay: Boophilus microplus test (injection); settings: Rhipicephalus microplus; application rate 20 μg/animal; injected into abdomen of adult engorged female ticks; 100% = all eggs infertile
# Method: Boophilus microplus—Test (Injection)
# (§1) Solvent: Dimethyl Sulfoxide
# (§2) To produce a suitable preparation of active compound, 10 mg of active compound are dissolved in 0.5 ml solvent, and the concentrate is diluted with water to the desired concentration.
# Five adult engorged female ticks (Boophilus microplus) are injected with compound solution into the abdomen. Ticks are transferred into replica plates and incubated in a climate chamber for a period of time. Egg deposition of fertile eggs is monitored.
# After the specified period of time, mortality in % is determined. 100% means that all eggs are infertile; 0% means that all eggs are fertile.
# [2] = system: Ctenocephalides felis; assay: Ctenocephalides felis test (CTECFE); settings: application rate 100 ppm in cattle blood, adult unfed fleas, 100% = all fleas killed
# Method: Ctenocephalides felis—Test (CTECFE)
# as §1
# To produce a suitable preparation of active compound, 10 mg of active compound are dissolved in 0.5 ml solvent, and the concentrate is diluted with cattle blood to the desired concentration.
# Approximately 10 to 15 adult unfed (Ctenocepahlides felis) are placed in flea chambers. The blood chamber, sealed with parafilm on the bottom are filled with cattle blood supplied with compound solution and placed on top of the flea chamber, so that the fleas are able to suck the blood. The blood chamber is heated to 37° C. whereas the flea chamber is kept at room temperature.
# After the specified period of time, mortality in % is determined. 100% means that all the fleas have been killed; 0% means that none of the fleas have been killed.
# [3] = system: Lucilia cuprina larvae; assay: Lucillia cuprina test; settings: application rate 100 ppm, larvae on minced horse meat, 100% = all larvae killed
# Method: as §1, §2
# Approximately 20-30 (Lucilia cuprina larvae) are transferred into a test tube containing 1 cm^3 of minced horse meat and 0.5 ml aqueous dilution of test compound.
# After the specified period of time, mortality in % is determined. 100% means that all the larvae have been killed; 0% means that none of the larvae have been killed.
# [4] = system: Musca domestica; assay: Musca domestica test; settings: application rate 100 ppm, adults, sponge soaked with sugar and compound solution, 100% = all flies killed
# Method: as §1, §2
# Prior to the assay, a piece or kitchen sponge is soaked with a mixture of sugar and compound solution and placed into a container. 10 adults (Musca domestica) are placed into the container and closed with a perforated lid.
# After the specified period of time, mortality in % is determined. 100% means that all the flies have been killed; 0% means that none of the flies have been killed.
Structure (SMILES),mortality at 0.02 mg [1] [%],mortality at 100 ppm [2] [%],mortality at 100 ppm [3] [%],mortality at 100 ppm [4] [%]
CCc1cc(SC(F)(F)F)cc(C)c1NC(=O)c1cccc(NC(=O)c2ccccc2F)c1 [Example I-1-186],80,≥ 80,≥ 80,
CCc1cc(SC(F)(F)C(F)(F)F)cc(C)c1NC(=O)c1cccc(NC(=O)c2ccccc2F)c1 [Example I-1-187],80,≥ 80,≥ 80,
O=C(Nc1c(I)cc(C(F)(F)F)cc1C(F)(F)F)c1cccc(NC(=O)c2ccccc2F)c1 [Example I-1-203],80,≥ 80,,
O=C(Nc1cccc(C(=O)Nc2c(I)cc(C(F)(F)F)cc2C(F)(F)F)c1)c1ccccc1 [Example I-1-204],80,≥ 80,≥ 80,
O=C(Nc1cccc(C(=O)Nc2c(Br)cc(Br)cc2Br)c1)c1ccccc1 [Example I-1-205],80,,,
O=C(Nc1cccc(C(=O)Nc2c(I)cc(C(F)(F)F)cc2C(F)(F)F)c1)c1ccc(Cl)cc1 [Example I-1-206],,≥ 80,≥ 80,
O=C(Nc1c(I)cc(C(F)(F)F)cc1I)c1cccc(NC(=O)c2ccccc2F)c1 [Example I-1-207],80,≥ 80,≥ 80,
O=C(Nc1c(I)cc(C(F)(F)F)cc1I)c1cccc(NC(=O)c2cccnc2F)c1 [Example I-1-208],80,≥ 80,≥ 80,≥ 80
O=C(Nc1cccc(C(=O)Nc2c(I)cc(C(F)(F)F)cc2C(F)(F)F)c1)c1ccc(Cl)cc1 [Example I-1-211],80,,,
O=C(Nc1cccc(C(=O)Nc2c(Br)cc(Br)cc2C(F)(F)F)c1)c1ccc(Cl)cc1 [Example I-1-212],80,≥ 80,,
O=C(Nc1c(Br)cc(S(F)(F)(F)(F)F)cc1Br)c1cccc(NC(=O)c2ccccc2F)c1 [Example I-1-213],80,≥ 80,≥ 80,
